Biological target: T1, SIRT1 (Homo sapiens, UniProt Q96EB6)
T1 sequence (Q96EB6 1-747): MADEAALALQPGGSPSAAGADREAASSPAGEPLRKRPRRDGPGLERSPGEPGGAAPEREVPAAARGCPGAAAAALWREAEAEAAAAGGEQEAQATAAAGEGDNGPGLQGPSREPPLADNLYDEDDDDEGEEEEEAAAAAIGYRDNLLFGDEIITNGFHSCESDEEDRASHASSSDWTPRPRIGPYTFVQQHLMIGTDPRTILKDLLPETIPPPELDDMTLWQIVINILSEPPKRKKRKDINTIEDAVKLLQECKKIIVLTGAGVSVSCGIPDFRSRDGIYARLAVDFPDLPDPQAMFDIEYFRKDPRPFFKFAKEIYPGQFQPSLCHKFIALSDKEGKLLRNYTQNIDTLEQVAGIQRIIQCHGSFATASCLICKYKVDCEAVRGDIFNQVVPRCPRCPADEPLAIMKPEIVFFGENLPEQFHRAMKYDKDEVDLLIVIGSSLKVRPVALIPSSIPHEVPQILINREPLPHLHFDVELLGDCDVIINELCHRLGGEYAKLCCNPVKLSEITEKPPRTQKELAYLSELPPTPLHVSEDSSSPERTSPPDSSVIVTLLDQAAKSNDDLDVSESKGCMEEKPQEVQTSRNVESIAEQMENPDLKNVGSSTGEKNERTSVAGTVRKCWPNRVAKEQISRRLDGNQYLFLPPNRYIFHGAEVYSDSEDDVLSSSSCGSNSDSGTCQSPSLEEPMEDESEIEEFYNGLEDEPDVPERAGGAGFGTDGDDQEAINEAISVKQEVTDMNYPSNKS
Assay: Trp mass spectrometry assay of SIRT1 activation (Ac-R-H-K-K(Ac)-W-NH2 peptide)
Assay type: biochemical
Details: Trp peptide 0.5 μM, 120 μM βNAD+, 10 nM SIRT1, 25 min at 25° C.; for Emax: 25 min, read-out: TRP MAX RESP (percent maximum fold activation)
Outline: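 N-terminal His-tagged human SIRT1, expressed in BL21(DE3) and purified, was incubated 25 min with an acetylated Trp peptide and NAD plus test compound at varying concentrations, then quenched with formic acid. OAADPR or deacetylated peptide was quantified by mass spectrometry versus compound-free control; EC1.5 is the concentration giving 50% activity increase, with percent maximum activation.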

Compound	Emax (relative to control (100%)) [%]	TRP Activity (EC1.5, concentration of test compound that results in 150% activation of SIRT1)	TRP MAX RESP (percent maximum fold activation) (relative to control (100%))
Cc1ncc(-c2ccnc(NC(=O)N3c4nc(C(=O)N[C@H](C)C(F)(F)F)cc(C)c4N4CC[C@H]3C4)c2)o1 [Example 252, (4S)-9-methyl-N5-(4-(2-methyloxazol-5-yl)pyridin-2-yl)-N7-((R)-1,1,1-trifluoropropan-2-yl)-3,4-dihydro-1,4-methanopyrido[2,3-b][1,4]diazepine-5,7(2H)-dicarboxamide]	< 150	A (EC1.5<1 μM)	–
NC(CNC(=O)c1ccc2c(n1)N(C(=O)Nc1ccccn1)[C@H]1CCN2C1)C(F)(F)F (single isomer, unassigned) [Example 249]	–	B (EC1.5 1-25 μM)	–
Cc1ccc2c(NC(=O)N3c4nc(C(=O)N[C@H](C)C(F)(F)F)c(Cl)cc4N4CC[C@H]3C4)n[nH]c2n1 [Example 316, (4S)-8-chloro-N5-(6-methyl-1H-pyrazolo[3,4-b]pyridin-3-yl)-N7-((R)-1,1,1-trifluoropropan-2-yl)-3,4-dihydro-1,4-methanopyrido[2,3-b][1,4]diazepine-5,7(2H)-dicarboxamide]	< 150	B (EC1.5 1-25 μM)	–
O=C(NC1CC1(F)F)c1ccc2c(n1)N(C(=O)Nc1ccccn1)[C@H]1CCN2C1 (single isomer, unassigned) [Example 44]	–	A (EC1.5<1 μM)	–
O=C(NC1CC1(F)F)c1ccc2c(n1)N(C(=O)Nc1cccnn1)[C@H]1CCN2C1 (single isomer, unassigned) [Example 271]	–	B (EC1.5 1-25 μM)	A (Fold activation≥150%)

Second part, the compound after the results:

Emax (relative to control (100%)) [%]	TRP Activity (EC1.5, concentration of test compound that results in 150% activation of SIRT1)	TRP MAX RESP (percent maximum fold activation) (relative to control (100%))	Compound
> 150	A (EC1.5<1 μM)	–	O=C(N[C@H](CO)C(F)(F)F)c1ccc2c(n1)N(C(=O)Nc1cnccn1)[C@H]1CCN2C1 (single isomer, unassigned) [Example 119]
> 150	B (EC1.5 1-25 μM)	–	O=C(O)c1ccnc(NC(=O)N2c3nc(C(=O)NCC(F)(F)F)ccc3N3CC[C@H]2C3)c1 [Example 267, 2-((4S)-7-((2,2,2-trifluoroethyl)carbamoyl)-2,3,4,5-tetrahydro-1,4-methanopyrido[2,3-b][1,4]diazepine-5-carboxamido)isonicotinic acid]
> 150	A (EC1.5<1 μM)	–	O=C(N[C@H](CO)C(F)(F)F)c1ccc2c(n1)N(C(=O)Nc1ccccn1)[C@H]1CCN2C1 [Example 16, (4S)—N5-(pyridin-2-yl)-N7-((R)-1,1,1-trifluoro-3-hydroxypropan-2-yl)-3,4-dihydro-1,4-methanopyrido[2,3-b][1,4]diazepine-5,7(2H)-dicarboxamide]
> 150	A (EC1.5<1 μM)	–	C[C@@H](NC(=O)c1ccc2c(n1)N(C(=O)Nc1ccc(OC[C@H](O)CO)nn1)[C@H]1CCN2C1)C(F)(F)F [Example 193, (4S)—N5-(6-((R)-2,3-dihydroxypropoxy)pyridazin-3-yl)-N7-((R)-1,1,1-trifluoropropan-2-yl)-3,4-dihydro-1,4-methanopyrido[2,3-b][1,4]diazepine-5,7(2H)-dicarboxamide]
> 150	A (EC1.5<1 μM)	–	C[C@@H](NC(=O)c1ccc2c(n1)N(C(=O)Nc1ncc3cc[nH]c3n1)[C@H]1CCN2C1)C(F)(F)F [Example 62, (4S)—N5-(7H-pyrrolo[2,3-d]pyrimidin-2-yl)-N7-((R)-1,1,1-trifluoropropan-2-yl)-3,4-dihydro-1,4-methanopyrido[2,3-b][1,4]diazepine-5,7(2H)-dicarboxamide]

— patent US10072011B2, “Substituted bridged urea analogs as sirtuin modulators” (GlaxoSmithKline Intellectual Property (No.2) Limited, priority 2014, dated 2018)
